Source: patent US10206907B2, “Compounds useful for the treatment of degenerative and inflammatory diseases” (GALAPAGOS NV, priority 2008, dated 2019)
Like-named read-outs stand apart in the source and are kept apart here.

How the values were obtained:
[1] = target: Recombinant human TYK2 catalytic domain (Homo sapiens (Human), UniProt P29597); assay: TYK2 inhibition assay; assay type: biochemical
Procedure: After 90 min at 30° C., reactions were stopped by adding of 25 μL/well of 150 mM phosphoric acid. […] Plates were washed 6 times with 300 μL per well of a 75 mM phosphoric acid solution and the bottom of the plates was sealed. 40 μL/well of Microscint-20 was added, the top of the plates was sealed and readout was performed using the Topcount (Perkin Elmer). Kinase activity was calculated by subtracting counts per minute (cpm) obtained in the presence of a positive control inhibitor (10 μM staurosporine) from cpm obtained in the presence of vehicle. The ability of a test compound to inhibit this activity was determined as: Percentage inhibition=((cpm determined for sample with test compound present−cpm determined for sample with positive control inhibitor) divided by (cpm determined in the presence of vehicle−cpm determined for sample with positive control inhibitor))*100%.
Dose dilution series were prepared for the compounds enabling the testing of dose-response effects in the TYK2 assay and the calculation of the IC50 for each compound.

[2] = target: Recombinant human JAK1 catalytic domain (Homo sapiens (Human), UniProt P23458); assay: JAK1 inhibition assay; assay type: biochemical
Chain of Recombinant human JAK1 catalytic domain (P23458 850-1154): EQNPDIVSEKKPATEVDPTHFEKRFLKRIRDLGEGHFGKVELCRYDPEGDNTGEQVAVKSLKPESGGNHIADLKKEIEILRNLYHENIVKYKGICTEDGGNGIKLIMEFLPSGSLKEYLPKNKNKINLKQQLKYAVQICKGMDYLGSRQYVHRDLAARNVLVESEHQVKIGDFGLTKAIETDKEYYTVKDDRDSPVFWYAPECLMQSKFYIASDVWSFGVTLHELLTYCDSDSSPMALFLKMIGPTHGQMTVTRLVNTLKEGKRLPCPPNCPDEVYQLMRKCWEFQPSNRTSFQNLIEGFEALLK
Procedure, shortened: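 Radiometric assay read by scintillation counting after phosphoric-acid washes. Percent inhibition calculated from cpm relative to vehicle and 10 μM staurosporine control. IC50 derived from compound dose-dilution series.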

[3] = target: Recombinant human JAK2 catalytic domain (Homo sapiens (Human), UniProt O60674); assay: JAK2 inhibition assay; assay type: biochemical
Chain of Recombinant human JAK2 catalytic domain (O60674 808-1132): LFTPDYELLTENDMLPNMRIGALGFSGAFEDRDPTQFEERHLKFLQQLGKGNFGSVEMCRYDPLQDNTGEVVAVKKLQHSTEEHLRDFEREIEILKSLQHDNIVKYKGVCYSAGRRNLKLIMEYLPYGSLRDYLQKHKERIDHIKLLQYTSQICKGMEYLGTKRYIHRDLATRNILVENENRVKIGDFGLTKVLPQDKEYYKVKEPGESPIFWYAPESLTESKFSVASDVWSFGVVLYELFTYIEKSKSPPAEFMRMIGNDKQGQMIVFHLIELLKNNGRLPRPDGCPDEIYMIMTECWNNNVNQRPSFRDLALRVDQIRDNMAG
Procedure, shortened: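 Radiometric kinase reactions ran for 90 min at 30 °C and were stopped with phosphoric acid, then washed and counted by scintillation. Percent inhibition was set relative to vehicle and to 10 μM staurosporine background. IC50 was derived from dose-dilution series.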

[4] = target: Recombinant human JAK3 catalytic domain (Homo sapiens (Human), UniProt P52333); assay: JAK3 inhibition assay; assay type: biochemical; conditions: semi-quantitative score
Chain of Recombinant human JAK3 catalytic domain (P52333 781-1124): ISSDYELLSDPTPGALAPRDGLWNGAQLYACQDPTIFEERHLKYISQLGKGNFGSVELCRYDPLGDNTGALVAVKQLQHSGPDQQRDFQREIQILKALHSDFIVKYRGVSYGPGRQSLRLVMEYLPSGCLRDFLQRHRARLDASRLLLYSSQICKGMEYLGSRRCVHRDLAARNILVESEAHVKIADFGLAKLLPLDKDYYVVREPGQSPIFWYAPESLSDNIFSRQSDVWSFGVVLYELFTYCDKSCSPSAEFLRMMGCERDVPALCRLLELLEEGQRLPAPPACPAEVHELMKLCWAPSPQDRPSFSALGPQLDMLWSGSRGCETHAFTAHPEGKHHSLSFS

MMP13 in SW1353 cells = assay: OSM/IL-1β signaling assay (MMP13 levels in SW1353 cells); assay type: cell-based; conditions: Homo sapiens; SW1353 cells, OSM and IL-1β triggered, MMP13 levels 48 hours after triggering; read-out: MMP13 EC50;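 also: secreted MMP13 captured by antibody, activated with APMA and its activity read by fluorescence, inhibition scaled between vehicle-treated triggered wells (0%) and untriggered wells (100%)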
[5] = tested on: JAK-STAT signalling in HeLa cells; assay: JAK-STAT signalling assay (OSM-triggered pSTAT1(2)-luciferase reporter in HeLa cells); assay type: cell-based; conditions: Homo sapiens; HeLa cells, OSM-triggered pSTAT1(2)-luciferase reporter; read-out: STAT signalling EC50
Procedure, shortened: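 HeLa cells transiently transfected with pSTAT1(2)-luciferase reporter plus LacZ internal control, incubated overnight at 37 °C, 10% CO2, then OSM-stimulated with compound. Luciferase read by Steadylite luminescence and normalised to β-galactosidase (ONPG); percent inhibition from controls, EC50 from dose-response.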

[6] = Microsomal stability, human liver microsomes; assay type: in vitro ADME; conditions: percentage of compound remaining after 60 minutes, 3 μM compound
Procedure, shortened: (§1)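 Compound was incubated with liver microsomes plus an NADP+/glucose-6-phosphate/G6PDH/MgCl2 regenerating system at 37°C for 1 h. Reactions were stopped 1:1 with MeOH or ACN and analysed by LCMS.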

[7] = Microsomal stability, rat liver microsomes; assay type: in vitro ADME; conditions: percentage of compound remaining after 60 minutes, 3 μM compound
Procedure, shortened: as §1

Chain of Recombinant human TYK2 catalytic domain (P29597 871-1187): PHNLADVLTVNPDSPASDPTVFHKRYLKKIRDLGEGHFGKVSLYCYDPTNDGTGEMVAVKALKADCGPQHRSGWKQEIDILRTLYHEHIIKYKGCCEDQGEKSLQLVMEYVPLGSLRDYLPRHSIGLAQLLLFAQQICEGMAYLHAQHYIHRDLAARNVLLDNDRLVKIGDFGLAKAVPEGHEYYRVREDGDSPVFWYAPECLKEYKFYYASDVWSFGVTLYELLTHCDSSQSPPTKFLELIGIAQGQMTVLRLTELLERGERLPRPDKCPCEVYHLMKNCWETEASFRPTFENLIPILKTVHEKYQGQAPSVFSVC

SMILES | IC50 ([1]; semi-quantitative score) | IC50 ([2]; semi-quantitative score) | IC50 ([3]; semi-quantitative score) | IC50 [4] | EC50 (MMP13 in SW1353 cells) | EC50 [5] | Microsomal Stability Human (%) [6] | Microsomal Stability Rat (%) [7] | IC50 [1] | IC50 [2] | IC50 [3]
CN1CCN(c2ccc(-c3cccc4nc(NC(=O)C5CC5)nn34)cc2)CC1 [Compound 1, N-(5-(4-(4-methylpiperazin-1-yl)phenyl)-[1,2,4]triazolo[1,5-a]pyridin-2-yl)cyclopropanecarboxamide] | > 1000 nM | 101 to 500 nM | 501 to 1000 nM | > 1000 nM |  |  |  |  |  |  | 
O=C(Nc1nc2cccc(-c3ccc(NS(=O)(=O)c4ccc(F)cc4)cc3)n2n1)C1CC1 [Compound 33, N-(5-(4-(4-fluorophenylsulfonamido)phenyl)-[1,2,4]triazolo[1,5-a]pyridin-2-yl)cyclopropanecarboxamide] | 101 to 500 nM | < 100 nM | < 100 nM | > 1000 nM | > 1000 nM | > 1000 nM | **** (**** 76-100) | ** (** 26-50) |  |  | 
O=C(Nc1nc2cccc(-c3ccc(OCC4CCC4)cc3)n2n1)C1CC1 [Compound 39, N-(5-(4-(cyclobutylmethoxy)phenyl)-[1,2,4]triazolo[1,5-a]pyridin-2-yl)cyclopropanecarboxamide] | > 1000 nM | < 100 nM | < 100 nM | > 1000 nM | > 1000 nM | > 1000 nM | ** (** 26-50) | ** (** 26-50) |  |  | 
O=C(Nc1nc2cccc(-c3ccc(OCC4CCCCC4)cc3)n2n1)C1CC1 [Compound 41, N-(5-(4-(cyclohexylmethoxy)phenyl)-[1,2,4]triazolo[1,5-a]pyridin-2-yl)cyclopropanecarboxamide] | > 1000 nM | < 100 nM | 101 to 500 nM |  | 501 to 1000 nM | 501 to 1000 nM | ** (** 26-50) | ** (** 26-50) |  |  | 
O=C(Nc1ccccc1)c1ccc(-c2cccc3nc(NC(=O)C4CC4)nn23)cc1 [Compound 43, 4-(2-(cyclopropanecarboxamido)-[1,2,4]triazolo[1,5-a]pyridin-5-yl)-N-phenylbenzamide] | > 1000 nM | 101 to 500 nM |  | > 1000 nM |  |  | **** (**** 76-100) | **** (**** 76-100) |  |  | 
O=C(Nc1nc2cccc(-c3ccc(Oc4ccccc4)cc3)n2n1)C1CC1 [Compound 46, N-(5-(4-phenoxyphenyl)-[1,2,4]triazolo[1,5-a]pyridin-2-yl)cyclopropanecarboxamide] | > 1000 nM | < 100 nM | 101 to 500 nM | > 1000 nM | > 1000 nM | > 1000 nM | * (* 0-25) | * (* 0-25) |  |  | 
Cc1noc(C)c1COc1ccc(-c2cccc3nc(NC(=O)C4CC4)nn23)cc1 [Compound 49, N-(5-(4-((3,5-dimethylisoxazol-4-yl)methoxy)phenyl)-[1,2,4]triazolo[1,5-a]pyridin-2-yl)cyclopropanecarboxamide] | > 1000 nM | < 100 nM | 101 to 500 nM | > 1000 nM | > 1000 nM | > 1000 nM | * (* 0-25) | * (* 0-25) |  |  | 
Cc1cc(COc2ccc(-c3cccc4nc(NC(=O)C5CC5)nn34)cc2)n(C)n1 [Compound 50] | > 1000 nM | < 100 nM | < 100 nM | 101 to 500 nM | > 1000 nM | > 1000 nM | ** (** 26-50) | * (* 0-25) |  |  | 
O=C(Nc1nc2cccc(-c3ccc(NS(=O)(=O)c4ccccc4F)cc3)n2n1)C1CC1 [Compound 54, N-(5-(4-(2-fluorophenylsulfonamido)phenyl)-[1,2,4]triazolo[1,5-a]pyridin-2-yl)cyclopropanecarboxamide] | 101 to 500 nM | < 100 nM | < 100 nM | > 1000 nM | > 1000 nM | > 1000 nM | **** (**** 76-100) | *** (*** 51-75) |  |  | 
O=C(NCc1ccccc1)c1ccc(-c2cccc3nc(NC(=O)C4CC4)nn23)cc1 [Compound 56, N-benzyl-4-(2-(cyclopropanecarboxamido)-[1,2,4]triazolo[1,5-a]pyridin-5-yl)benzamide] | > 1000 nM | < 100 nM | 101 to 500 nM | > 1000 nM | > 1000 nM | > 1000 nM | **** (**** 76-100) | * (* 0-25) |  |  | 
O=C(Nc1nc2cccc(-c3ccc(OCc4ccccc4)nc3)n2n1)C1CC1 [Compound 57, Cyclopropanecarboxylic Acid [5-(6-benzyloxy-pyridin-3-yl)-[1,2,4]triazolo[1,5-a]pyridin-2-yl]-amide] |  |  |  | 501 to 1000 nM | > 1000 nM | > 1000 nM | ** (** 26-50) | ** (** 26-50) | > 1000 nM | < 100 nM | < 100 nM
O=C(Nc1nc2cccc(-c3ccc(C(=O)N4CCc5ccccc5C4)cc3)n2n1)C1CC1 [Compound 58] | > 1000 nM | < 100 nM | 101 to 500 nM | > 1000 nM | 501 to 1000 nM | > 1000 nM | * (* 0-25) | * (* 0-25) |  |  | 
Cc1cc(COc2ccc(-c3cccc4nc(NC(=O)C5CC5)nn34)cc2)nn1C [Compound 62] | > 1000 nM | < 100 nM | < 100 nM | 101 to 500 nM | > 1000 nM | > 1000 nM | ** (** 26-50) | * (* 0-25) |  |  | 
O=C(Nc1nc2cccc(-c3ccc(-c4cccnc4)cc3)n2n1)C1CC1 [Compound 66, N-(5-(4-(pyridin-3-yl)phenyl)-[1,2,4]triazolo[1,5-a]pyridin-2-yl)cyclopropanecarboxamide] | 501 to 1000 nM | < 100 nM | 101 to 500 nM |  | > 1000 nM | > 1000 nM | **** (**** 76-100) | * (* 0-25) |  |  | 
O=C(COc1ccc(-c2cccc3nc(NC(=O)C4CC4)nn23)cc1)Nc1cccc(F)c1 [Compound 116, N-(5-(4-(2-(3-fluorophenylamino)-2-oxoethoxy)phenyl)-[1,2,4]triazolo[1,5-a]pyridin-2-yl)cyclopropanecarboxamide] | > 1000 nM | < 100 nM | 101 to 500 nM | 501 to 1000 nM | > 1000 nM | > 1000 nM | *** (*** 51-75) | * (* 0-25) |  |  | 
O=C(N[C@H]1CCN(Cc2ccccc2)C1)c1ccc(-c2cccc3nc(NC(=O)C4CC4)nn23)cc1 [Compound 119, (S)-N-(1-benzylpyrrolidin-3-yl)-4-(2-(cyclopropanecarboxamido)-[1,2,4]triazolo[1,5-a]pyridin-5-yl)benzamide] | > 1000 nM | < 100 nM | 101 to 500 nM | > 1000 nM | > 1000 nM | > 1000 nM | * (* 0-25) | ** (** 26-50) |  |  | 
O=C(Nc1nc2cccc(-c3ccc4c(ccn4Cc4ccccc4)c3)n2n1)C1CC1 [Compound 121, Cyclopropanecarboxylic Acid [5-(1-benzyl-1H-indol-5-yl)-[1,2,4]triazolo[1,5-a]pyridin-2-yl]-amide] | > 1000 nM | < 100 nM | < 100 nM | 501 to 1000 nM | > 1000 nM | 501 to 1000 nM | * (* 0-25) | * (* 0-25) |  |  | 
